Read-outs that look alike come from different tables or passages of the source.
Key:
COL2A1 mRNA expression = assay: COL2A1 (type II collagen) mRNA expression by RTqPCR in chondrocytes stimulated with LPS or IL-1β; type: cell-based, human; details: IC50 doses
Description: (§1) Human articular chondrocytes (ScienCell, CA, USA) were cultured in the specific Chondrocyte Medium (Cat. 4651; ScienCell, CA, USA) supplemented with 1% antibiotic mixture, in 5% CO2 humidified incubator at 37°C. The medium was renewed every 2 days and confluent chondrocytes were trypsinized, subdivided, and re-plated. In these experiments chondrocytes from passage 3 to 7 were used. Chondrocytes were cultured in six well culture plates at a density of 2.5 × 10^5 cells/well. Sixteen hours after seeding, a set of plates were treated with LPS (2 μg/ml; Escherichia coli serotype 055:B5; […] Total RNA was isolated from human chondrocytes for RTqPCR analysis using Trizol Reagent Kit (Life Technologies, Monza, Italy). […] The amplified PCR products were quantified by measuring the calculated cycle thresholds (CT) of targets and β-actin mRNA. The amounts of specific mRNA in samples were calculated using the 2^-ΔΔCT method. The mean value of investigated mRNA levels in LPS or IL-1β-stimulated chondrocytes was chosen as the calibrator, and the results are expressed as % of reduction compared to LPS or IL-1β controls. The IC50 value was calculated by fitting the progress curves to the four-parameter IC50 equation using GraphPad prism software version 5.03 (Graphpad software, CA, USA). […]

[1] = test system: Human articular chondrocytes; assay: MTT assay, cell viability of chondrocytes; type: cell-based; details: IC50 concentrations, 24 h
Description: Human articular chondrocytes (ScienCell, CA, USA) were cultured in the specific Chondrocyte Medium (Cat. 4651; ScienCell, CA, USA) supplemented with 1% antibiotic mixture, in 5% CO2 humidified incubator at 37°C. The medium was renewed every 2 days and confluent chondrocytes were trypsinized, subdivided, and re-plated. In these experiments chondrocytes from passage 3 to 7 were used. Cell viability was evaluated by MTT assay. Chondrocytes were grown and then treated with IC50 doses when reached confluence. In particular, flavocoxid, curcumin, flavocoxid + curcumin, β-caryophyllene, and β-caryophyllene + curcumin were tested in a 96-well plate at a density of 8 × 10^4 cells/well for 24 h to evaluate the cytotoxic effect. The tetrazolium dye MTT 3-(4,5-dimethylthiazol-2-yl)-2,5-diphenyltetrazolium bromide (Sigma Aldrich, Milan, Italy) was dissolved in sterile filtered PBS, and 20 µl of the mixture were added into each well 5 h before the end of the 24 h of incubation. Medium was removed and the insoluble formazan crystals were dissolved with dimethyl sulfoxide (DMSO; 200 µl/well) following 5 h. The difference between the values obtained at 540 and 620 nm of absorbance was used to calculate the average of replicates and to evaluate cytotoxicity. Results were expressed as % of cell viability compared to untreated cells and reported as means and SD.

IL-1β mRNA expression = IL-1β mRNA expression (RTqPCR) in LPS-stimulated human articular chondrocytes; Chou-Talalay median-effect and combination index analysis; type: cell-based; details: Chondrocyte, 4 h, LPS 2 µg/ml
Description: Human articular chondrocytes (ScienCell, CA, USA) were cultured in the specific Chondrocyte Medium (Cat. 4651; ScienCell, CA, USA) supplemented with 1% antibiotic mixture, in 5% CO2 humidified incubator at 37°C. The medium was renewed every 2 days and confluent chondrocytes were trypsinized, subdivided, and re-plated. In these experiments chondrocytes from passage 3 to 7 were used. Chondrocytes were cultured in six well culture plates at a density of 2.5 × 10^5 cells/well. Sixteen hours after seeding, a set of plates were treated with LPS (2 µg/ml; Escherichia coli serotype 055:B5; […] Total RNA was isolated from human chondrocytes for RTqPCR analysis using Trizol Reagent Kit (Life Technologies, Monza, Italy). […] RTqPCR was performed on both targets and endogenous control using SYBR Premix DimerEraser (Takara, Japan) and QuantStudio 6 Flex Real-Time PCR System (Applied Biosystems, CA, USA). The amplified PCR products were quantified by measuring the calculated cycle thresholds (CT) of targets and β-actin mRNA. The amounts of specific mRNA in samples were calculated using the 2^-ΔΔCT method. The mean value of investigated mRNA levels in LPS or IL-1β-stimulated chondrocytes was chosen as the calibrator, and the results are expressed as % of reduction compared to LPS or IL-1β controls. The IC50 value was calculated by fitting the progress curves to the four-parameter IC50 equation using GraphPad prism software version 5.03 (Graphpad software, CA, USA). Chou and Talalay multiple drug effect analysis was performed and it is based on the median-effect principle ([Chou and Talalay, 1984]; [Chou, 2006]). The Median Effect Equation states that fa/fu = (D/Dm) m, where D is the dose, fa and fu are the affected and the unaffected fractions, respectively, of IL-1β mRNA expression levels, by the dose D; Dm is the dose required to produce the median effect (i.e., IC50), and m is the Hill-type coefficient signifying the sigmoidicity of the dose–effect curve. […] The CI was calculated as: CI=[(D)1/(D50)1]+[(D) 2/(D50)2 […] The CI index was calculated using Grafit software.

NF-κB mRNA expression = NF-κB mRNA expression by RTqPCR in LPS-stimulated chondrocytes; type: cell-based, human; details: IC50 doses
Description: as §1

STAT3 mRNA expression = STAT3 mRNA expression by RTqPCR in LPS-stimulated chondrocytes; type: cell-based, human; details: IC50 doses
Description: as §1

[2] = matrix not stated; no reference given; cited from earlier work
[3] = curcumin/β-caryophyllene experiment, combination molar ratio 3.6:1, read-out: IC50, reduction of IL-1β mRNA

| IC50 (IL-1β mRNA expression; curcumin/flavocoxid experiment, combination molar ratio 7.3:1, read-out: IC50, reduction of IL-1β mRNA) [µM] | IC50 (IL-1β mRNA expression; [3]) [µM] | SMILES | COL2A1 (type II collagen) mRNA expression (COL2A1 mRNA expression) | Cell viability (cytotoxic effect), MTT [1] | NF-κB mRNA expression (NF-κB mRNA expression) | STAT3 mRNA expression (STAT3 mRNA expression) | half-life [2] |
| --- | --- | --- | --- | --- | --- | --- | --- |
| 14.3 | 13.6 | COc1cc(/C=C/C(=O)CC(=O)/C=C/c2ccc(O)c(OC)c2)ccc1O [curcumin] | partially able to restore the mRNA control levels | did not affect chondrocytes viability | reduced | reduced | about 3 h |
|  | 48.9 | C=C1CC/C=C(\C)CC[C@@H]2[C@@H]1CC2(C)C [β-caryophyllene] | partially able to restore the mRNA control levels | did not affect chondrocytes viability | reduced | reduced |  |
